From article PMC8359193, “Summary of reference chemicals evaluated by the fish short‐term reproduction assay, OECD TG229, using Japanese Medaka, Oryzias latipes” (Journal of Applied Toxicology, 2021)

Tested on: Japanese medaka (Oryzias latipes)
Assay: Fish short-term reproduction assay (FSTRA, OECD TG229), 21-day flow-through exposure
Details: for Fertility rate (%) / Mortality (%) Female / Mortality (%) Male / Number of fertilized eggs / Number of total eggs / SSC Female / SSC Male / VTG (ng/mg of liver) Female / VTG (ng/mg of liver) Male: 21 days; for GSI Female / GSI Male / HSI Female / HSI Male / Length Female / Length Male / Weight Female / Weight Male: at completion of exposure; for effect on fecundity (number of total eggs), in words: within the test concentrations
Method in brief: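 Run to OECD TG229: mature NIES-R medaka pairs (3♂/3♀ per vessel, 4 vessels per treatment plus dilution water control) were dosed by continuous flow-through for 21 days. Test concentrations were spaced 2- to 5-fold. Daily spawned eggs were counted under the microscope for fertilized versus unfertilized.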

In the case of `CC(=O)N1CCN(c2ccc(OCC3COC(Cn4ccnc4)(c4ccc(Cl)cc4Cl)O3)cc2)CC1` (centres unmarked) [KCZ, Ketoconazole], the “effect on male SSC, in words” value (21-day exposure) is reported as “statistical significance”, the “LOEC for decrease of VTG in females” value (hepatic VTG, 21-day exposure, measured conc.) is reported as 233 µg/L and the “Fertility rate (%)” value (measured conc. 105 μg/L) is reported as 91%. For the same compound, the “Mortality (%) Female” value (measured conc. 105 μg/L) was 0%, the “Mortality (%) Male” value (measured conc. 105 μg/L) was 0% and the “Number of fertilized eggs” value (measured conc. 105 μg/L) was 22. For the same compound, the “Number of total eggs” value (measured conc. 105 μg/L) was 24 ± 1.1 /female/day, the “SSC Female” value (measured conc. 105 μg/L) was 0 ± 0 and the “SSC Male” value (measured conc. 105 μg/L) was 82 ± 10. For the same compound, the “VTG (ng/mg of liver) Female” value (measured conc. 105 μg/L) was 618 ± 81 ng/mg of liver, the “VTG (ng/mg of liver) Male” value (measured conc. 105 μg/L) was 1.4 ± 0.3 ng/mg of liver and the “GSI Female” value (measured conc. 105 μg/L) was 11.6%. For the same compound, the “GSI Male” value (measured conc. 105 μg/L) was 1.08%, the “HSI Female” value (measured conc. 105 μg/L) was 4.2% and the “HSI Male” value (measured conc. 105 μg/L) was 1.9%. The “Length Female” value (measured conc. 105 μg/L) was 33.2 mm, the “Length Male” value (measured conc. 105 μg/L) was 32.7 mm and the “Weight Female” value (measured conc. 105 μg/L) was 387 mg. The “Weight Male” value (measured conc. 105 μg/L) was 381 mg, the “Fertility rate (%)” value (measured conc. 233 μg/L) was 89% and the “Mortality (%) Female” value (measured conc. 233 μg/L) was 0%. For the same compound, the “Mortality (%) Male” value (measured conc. 233 μg/L) was 0%, the “Number of fertilized eggs” value (measured conc. 233 μg/L) was 18 and the “Number of total eggs” value (measured conc. 233 μg/L) was 20 ± 1.6 /female/day. For the same compound, the “SSC Female” value (measured conc. 233 μg/L) was 0 ± 0, the “SSC Male” value (measured conc. 233 μg/L) was 116 ± 25 and the “VTG (ng/mg of liver) Female” value (measured conc. 233 μg/L) was 542 ± 353 ng/mg of liver. For the same compound, the “VTG (ng/mg of liver) Male” value (measured conc. 233 μg/L) was 1.3 ± 0.1 ng/mg of liver, the “GSI Female” value (measured conc. 233 μg/L) was 12.0% and the “GSI Male” value (measured conc. 233 μg/L) was 1.26%. For the same compound, the “HSI Female” value (measured conc. 233 μg/L) was 8.8%, the “HSI Male” value (measured conc. 233 μg/L) was 3.8% and the “Length Female” value (measured conc. 233 μg/L) was 33.3 mm. For the same compound, the “Length Male” value (measured conc. 233 μg/L) was 33.3 mm, the “Weight Female” value (measured conc. 233 μg/L) was 419 mg and the “Weight Male” value (measured conc. 233 μg/L) was 416 mg. For the same compound, the “Fertility rate (%)” value (measured conc. 405 μg/L) was 81%, the “Mortality (%) Female” value (measured conc. 405 μg/L) was 8% and the “Mortality (%) Male” value (measured conc. 405 μg/L) was 0%. The “Number of fertilized eggs” value (measured conc. 405 μg/L) was 9.0, the “Number of total eggs” value (measured conc. 405 μg/L) was 11 ± 4.4 /female/day and the “SSC Female” value (measured conc. 405 μg/L) was 0 ± 0. For the same compound, the “SSC Male” value (measured conc. 405 μg/L) was 91 ± 13, the “VTG (ng/mg of liver) Female” value (measured conc. 405 μg/L) was 190 ± 123 ng/mg of liver and the “VTG (ng/mg of liver) Male” value (measured conc. 405 μg/L) was 1.1 ± 0.1 ng/mg of liver. The “GSI Female” value (measured conc. 405 μg/L) was 13.6%, the “GSI Male” value (measured conc. 405 μg/L) was 0.98% and the “HSI Female” value (measured conc. 405 μg/L) was 12.1%. The “HSI Male” value (measured conc. 405 μg/L) was 3.5%, the “Length Female” value (measured conc. 405 μg/L) was 32.6 mm and the “Length Male” value (measured conc. 405 μg/L) was 32.4 mm. The “Weight Female” value (measured conc. 405 μg/L) was 410 mg, the “Weight Male” value (measured conc. 405 μg/L) was 404 mg and the “Fertility rate (%)” value (measured conc. 795 μg/L) was 76%. For the same compound, the “Mortality (%) Female” value (measured conc. 795 μg/L) was 42%, the “Mortality (%) Male” value (measured conc. 795 μg/L) was 58% and the “Number of fertilized eggs” value (measured conc. 795 μg/L) was 3.5. The “Number of total eggs” value (measured conc. 795 μg/L) was 4.7 ± 0.9 /female/day, the “SSC Female” value (measured conc. 795 μg/L) was 0 ± 0 and the “SSC Male” value (measured conc. 795 μg/L) was 80 ± 22. The “VTG (ng/mg of liver) Female” value (measured conc. 795 μg/L) was 56 ± 95 ng/mg of liver, the “VTG (ng/mg of liver) Male” value (measured conc. 795 μg/L) was 1.1 ± 0.1 ng/mg of liver and the “GSI Female” value (measured conc. 795 μg/L) was 11.0%. The “GSI Male” value (measured conc. 795 μg/L) was 1.35%, the “HSI Female” value (measured conc. 795 μg/L) was 11.8% and the “HSI Male” value (measured conc. 795 μg/L) was 5.1%. The “Length Female” value (measured conc. 795 μg/L) was 31.7 mm, the “Length Male” value (measured conc. 795 μg/L) was 30.2 mm and the “Weight Female” value (measured conc. 795 μg/L) was 376 mg. The “Weight Male” value (measured conc. 795 μg/L) was 282 mg and the “effect on fecundity (number of total eggs), in words” value (21-day exposure) was “significant difference from the control”.
`C#C[C@]1(O)CC[C@H]2[C@@H]3CCC4=CC(=O)CC[C@@H]4[C@H]3CC[C@@]21CC` [LNG, Levonorgestrel] was tested, and the “LOEC on female SSC (papillary process formation on anal fin)” value (21-day exposure, measured conc.) was 42.2 ng/L, the “concentration at which female hepatic VTG was significantly decreased” value (highest concentration, 21-day exposure) was 226 ng/L and the “GSI Male” value (male, measured conc. 7.3 ng/L) was 0.82%. The “HSI Male” value (male, measured conc. 7.3 ng/L) was 2.0%, the “Length Male” value (male, measured conc. 7.3 ng/L) was 38.4 mm and the “Weight Male” value (male, measured conc. 7.3 ng/L) was 610 mg. For the same compound, the “GSI Male” value (male, measured conc. 42.2 ng/L) was 0.89%, the “HSI Male” value (male, measured conc. 42.2 ng/L) was 2.2% and the “Length Male” value (male, measured conc. 42.2 ng/L) was 38.8 mm. For the same compound, the “Weight Male” value (male, measured conc. 42.2 ng/L) was 691 mg, the “GSI Male” value (male, measured conc. 226 ng/L) was 0.76% and the “HSI Male” value (male, measured conc. 226 ng/L) was 2.1%. For the same compound, the “Length Male” value (male, measured conc. 226 ng/L) was 38.3 mm, the “Weight Male” value (male, measured conc. 226 ng/L) was 610 mg and the “Fertility rate (%)” value (measured conc. 7.3 ng/L) was 87%. For the same compound, the “Mortality (%) Female” value (measured conc. 7.3 ng/L) was 0%, the “Mortality (%) Male” value (measured conc. 7.3 ng/L) was 0% and the “Number of fertilized eggs” value (measured conc. 7.3 ng/L) was 25. The “Number of total eggs” value (measured conc. 7.3 ng/L) was 29 ± 5.8 /female/day, the “SSC Female” value (measured conc. 7.3 ng/L) was 0 ± 0 and the “SSC Male” value (measured conc. 7.3 ng/L) was 112 ± 4.5. The “VTG (ng/mg of liver) Female” value (measured conc. 7.3 ng/L) was 2,370 ± 207 ng/mg of liver, the “VTG (ng/mg of liver) Male” value (measured conc. 7.3 ng/L) was 2.8 ± 4.1 ng/mg of liver and the “Fertility rate (%)” value (measured conc. 42.2 ng/L) was 82%. The “Mortality (%) Female” value (measured conc. 42.2 ng/L) was 8%, the “Mortality (%) Male” value (measured conc. 42.2 ng/L) was 0% and the “Number of fertilized eggs” value (measured conc. 42.2 ng/L) was 17. The “Number of total eggs” value (measured conc. 42.2 ng/L) was 21 ± 3.9 /female/day, the “SSC Female” value (measured conc. 42.2 ng/L) was 44 ± 10 and the “SSC Male” value (measured conc. 42.2 ng/L) was 121 ± 8.6. The “VTG (ng/mg of liver) Female” value (measured conc. 42.2 ng/L) was 2,350 ± 673 ng/mg of liver, the “VTG (ng/mg of liver) Male” value (measured conc. 42.2 ng/L) was 0.8 ± 0.3 ng/mg of liver and the “Fertility rate (%)” value (measured conc. 226 ng/L) was 82%. The “Mortality (%) Female” value (measured conc. 226 ng/L) was 0%, the “Mortality (%) Male” value (measured conc. 226 ng/L) was 0% and the “Number of fertilized eggs” value (measured conc. 226 ng/L) was 5.1. The “Number of total eggs” value (measured conc. 226 ng/L) was 5.9 ± 5.2 /female/day, the “SSC Female” value (measured conc. 226 ng/L) was 83 ± 5.4 and the “SSC Male” value (measured conc. 226 ng/L) was 116 ± 10. The “VTG (ng/mg of liver) Female” value (measured conc. 226 ng/L) was 1,120 ± 561 ng/mg of liver, the “VTG (ng/mg of liver) Male” value (measured conc. 226 ng/L) was 0.6 ± 0.1 ng/mg of liver and the “effect on fecundity (number of total eggs), in words” value (21-day exposure) was “significant difference from the control”.
